Measurements reported in a melting point compilation (Tetko et al.; mined from patent text by program, amines drawn as free bases though some values may be those of a salt).

Row | melting point | Compound
1 | 163 to 164 °C | O=C1N(c2ccc(Br)cc2F)C(=S)C2CCCCC12O (configuration not stated)
2 | 115 °C | O=S(=O)(Nc1cc(F)ccc1F)c1ccccc1
3 | 134 to 135 °C | CC(CNc1nc2ccccc2o1)C(=O)NCCCN(C)Cc1ccc(Cl)c(Cl)c1 (configuration not stated)
4 | 134 to 136 °C | O=C1OCc2c1cccc2[N+](=O)[O-]
5 | 249 to 251 °C | Cn1cc(S(C)=O)c(=O)c2sc(-c3cccc(Cl)c3)cc21 (configuration not stated)
6 | 210 to 215 °C | COCCc1nc2c(N)nc3ccccc3c2n1CCCNS(=O)(=O)c1cccc2c(N(C)C)cccc12
7 | 176 °C | Oc1ccc(C2OCN3C2=CCC3CCc2ccccc2)cc1 (configuration not stated)
8 | 197 to 200 °C | O=C(N[C@H]1CC[C@H](O)CC1)c1cc(F)cnc1Cl
9 | 70 to 71 °C | Cc1cccc(CN2CCCN(C)C(=O)[C@H]2NC(=O)OCc2ccccc2)c1
10 | 167 to 169 °C | Cc1cc(N2C(=O)c3ccccc3C2=O)c(C)cc1N
11 | 190 to 191 °C | COc1ccc(-c2cc(-c3ccccc3)[nH]c2C(=O)NCc2ccc(C(=O)Nc3ncccn3)cc2)cc1
12 | 181 to 183 °C | CC12CCC3c4cc(O)c(O)cc4CCC3C1CCC2O (configuration not stated)
13 | 90 to 93 °C | C#CC1(OCc2cc(F)ccc2F)CCN(C(C)=O)CC1
14 | 212 to 215 °C | CSc1ccc(-n2c(-c3cccnc3)nc(SC)c(C#N)c2=O)cc1
15 | 238 to 239 °C | N#Cc1ccc(COCCn2cnc3c(N)nc4ccccc4c32)cc1
16 | 233 to 234 °C | NC(=O)c1sc(Nc2ccccc2)c2c1CCc1cn[nH]c1-2
17 | 208 to 209 °C | O=C1CC2CC(Oc3nc4ccccc4[nH]3)CC2C1 (configuration not stated)
18 | 209 to 211 °C | Cc1oc(-c2ccccc2)nc1CCOc1ccc(C=CC=CC=C2OC(=O)NC2=O)cc1
19 | 144 °C | CCCCN1C(=O)NC(Cc2ccc(C(=O)OC)cc2)C1=O (configuration not stated)
20 | 233 to 236 °C | CCn1cc(C(=O)O)c(=O)c2cc(F)c(N3CC4CC3CN4)c(F)c21 (configuration not stated)
21 | 201 to 202 °C | COCCc1nc2c(N)nc3cc(-c4ccccc4)ccc3c2n1CCCCNS(C)(=O)=O
22 | 165 to 167 °C | CCc1cccc(CC)c1NC(=O)NCC1(c2ccccc2)CCCC1
23 | 53 to 55 °C | C=CCCCCCCCCNC(=O)NOCc1ccccc1

Row | melting point | Compound
24 | 242 to 244 °C | O=C(O)/C=C/c1c[nH]c2ccccc2c1=O
25 | 232 to 235 °C | NC(=O)C(OCC1c2ccccc2-c2ccccc21)c1ccc(C(=O)O)cc1 (configuration not stated)
26 | 262 °C | CN1CCC(=C2c3c(ccn3C)C=Cn3cnnc32)CC1
27 | 144 to 146 °C | CN1CCCC1=NCCSc1c[nH]c2ccccc12
28 | 72 to 77 °C | CCNc1nc(=S)n(Cc2ccc(OC)c(OC3CCCC3)c2)c2nc(C(C)C)[nH]c12
29 | 161 °C | c1cc2nc3c(n2nc1N1CCCC1)CCCC3
30 | 180 to 182 °C | O=C(O)C1CC(c2ccccc2)=NN1 (configuration not stated)
31 | 155 to 157 °C | O=C(O)c1cccc(OCc2csc(-c3ccccc3)n2)c1
32 | 45 to 47 °C | CN(C)C1CCN(c2nc(N3CCOCC3)c3ncnc(N(CCC#N)Cc4ccccc4)c3n2)CC1
33 | 60 to 62 °C | CN(C)CCCC(O)c1ccc(F)cc1-c1ccccc1 (configuration not stated)
34 | 115 to 116 °C | CCCc1cccnc1N(CC)C1CCN(C(=O)c2ccc[nH]2)CC1
35 | 119 to 120 °C | CCOC(=O)Cc1c(C)n(Cc2ccc(C(C)(C)C)cc2)c2ccc(OCc3csc(-c4ccccc4)n3)cc12
36 | 118 to 119 °C | Cn1ncc(C=O)c1-c1cccnc1
37 | 135 to 136 °C | CN1CCc2cc(Cl)c(NC=O)cc2[C@@H](c2ccccc2)C1
38 | 184 to 185 °C | COc1ccc(CC(CS)C(=O)Nc2cccc(C(=O)O)c2)cc1 (configuration not stated)
39 | 85 °C | CCOC(=O)N1CCC(c2cc3cc(OC)cc(Br)c3o2)CC1
40 | 171 to 173 °C | COc1ccc(-c2ccc3c(C(=O)N(C)C)c(-c4ccccc4)ccc3c2)cc1
41 | 147 to 149 °C | CNC(=O)[C@@H]1C[C@H](OS(=O)(=O)c2ccc(C)cc2)CN1S(=O)(=O)c1ccc(C)cc1
42 | > 250 °C | CN1C(=O)C=C(c2c[nH]c3ncccc23)C1=O
43 | 125 °C | O=S1(=O)c2ccc(Cl)c3cccc(c23)N1CCCN1CCN(c2ccc(F)cc2)CC1
44 | 83 to 84 °C | COc1cc(C(O)c2ccc(C)cc2)cc(C2OCCCO2)c1OC (configuration not stated)
45 | 277 to 279 °C | COC(=O)c1nc2c(c(-c3ccccc3)nn2-c2ccccc2)c(N)c1C(=O)OC
46 | 246 to 249 °C | O=C(O)c1ccc(NC(=O)c2ccccc2-c2ccccc2)cc1

Second part, the molecule before the results:

Row | Compound | melting point
47 | O=C1C=C(NC(=O)C(=O)c2cn(Cc3c(F)cccc3F)c3ccccc23)CO1 | 252 to 256 °C
48 | Cc1ccc(C(=O)Nc2ccc(CN3CCN(C)CC3)c(C(F)(F)F)c2)cc1C#Cc1ccc(NC2CC2)nn1 | 68 to 69 °C
49 | CN(C(=O)c1cc(=O)n(C)c2ccc(C(O)(c3ccc(Cl)cc3)c3cncn3C)cc12)c1cccc(Cl)c1 (configuration not stated) | 218 °C
50 | O=C(NO)C(CC(=O)N1CCOCC1)NS(=O)(=O)c1ccc(-c2ccc(Cl)cc2)cc1 (configuration not stated) | 139 to 141 °C
51 | CC(C)(C)OC(=O)N[C@@H](Cc1cc(F)cc(F)c1)C(=O)CCl | 139 °C
52 | CC(C)(C)[C@@H](CO)NC(=O)[C@@H](CC(=O)O)n1ccc(-c2ccc(-c3ccncc3)cc2)c1 | 192 to 194 °C
53 | CCCCc1nc(=O)c2cc(C#C[Si](C)(C)C)c(F)cc2[nH]1 | 192 °C
54 | CCOC(=O)c1cnn2c(-c3ccc(C)c(C)c3)ccnc12 | 187 to 188 °C
55 | ClCCN(CCCl)CCCCOc1cccc(Nc2c3ccccc3nc3ccccc23)c1 | 126 to 127 °C
56 | CC1(c2oncc2C(=O)c2ccc(S(C)(=O)=O)cc2C(F)(F)F)CC1 | 141 to 142 °C
57 | N#CCc1cc(Cl)nc(N)n1 | 110 to 115 °C
58 | Cn1ccc2cc(NC(=O)c3cc4cc(F)ccc4n3Cc3cccc(F)c3)ccc21 | 187 to 189 °C
59 | CCOCc1nc2c(N)nc3cc(-c4ccsc4)ccc3c2n1CC(C)C | 187 to 189 °C
60 | NCCc1ccc(C(N)=O)s1 | 134 to 136 °C
61 | COc1ccc(S(C)(=O)=O)cc1C=O | 140 to 143 °C
62 | N=C(NS(=O)(=O)c1ccc(Cl)cc1)C1CN(c2ccc(Cl)cc2)C(c2ccc(Cl)cc2Cl)=N1 (configuration not stated) | 165 to 166 °C
63 | CCCCCCCCCCCN(CC)C(=O)N(O)O | 42 to 43 °C
64 | CCSc1cc(C)nc(SCC)c1NC(=O)CSc1nc2cccc(S(C)(=O)=O)c2o1 | 159 to 162 °C
65 | CC(C)c1[nH]n(-c2c(Cl)cc(Cl)cc2Cl)c2nc(Cc3ccc(N(C(=O)OC(C)(C)C)C(=O)[C@@H]4CCCN4)cc3)nc(=O)c1-2 | 225 to 226 °C

Row | Compound | melting point
66 | CCCc1c(OCCCCCCc2ccc(OCCCC(=O)O)cc2/C=C/C(=O)O)ccc2c1OCCC2=O | 140 to 143 °C
67 | Cc1nc(Cl)c(-c2ccc(Cl)cc2)c(NS(=O)(=O)c2ccc(Cl)cc2)n1 | 196 to 197 °C
68 | C=CCc1cc(C=C2SC(=S)NC2=O)cc(CC=C)c1O | 157 to 160 °C
69 | COc1c(F)cc(Br)c(C(=O)O)c1F | 92 to 94 °C
70 | Cn1ncc(C(=O)N2CCOCC2)c1C(=O)Nc1ccn2nc(-c3cccnc3F)nc2c1 | 267 to 269 °C
71 | CC(C)(C)OC(=O)Nc1ccc(-c2ccccc2F)cc1NC(=O)CC(=O)c1cccc([N+](=O)[O-])c1 | 167 °C
72 | COc1cc(C(=CC#N)c2cc(OC)c(OC)c(OC)c2)ccc1N | 123 to 125 °C
73 | Fc1ccc(-c2c(-c3ccncc3)nn3nccnc23)cc1 | 177 to 178 °C
74 | CC(C)=CCC/C(C)=C/CSc1nc2cc(F)c(Cl)cc2[nH]1 | 122 to 124 °C
75 | CCCCCCCCCCCC1OC1CO (configuration not stated) | 68 to 70 °C
76 | CCOC(=O)N1CCc2c(cnc3nc(/C=C4/C(=O)N5C(C(=O)O)=CS[C@H]45)nn23)C1 | > 250 °C
77 | O=C1CC(Sc2nnc(S)s2)C(=O)O1 (configuration not stated) | 194 to 196 °C
78 | O=S=NNc1cccc(C(F)(F)F)c1 | 100 °C
79 | Cc1nnc(C(C)NC(=O)CC(C)C)c(=O)[nH]1 (configuration not stated) | 224 to 226 °C
80 | COC(=O)c1cc(Oc2ccc(Cl)c(C)c2)ccc1[N+](=O)[O-] | 85 to 87 °C
81 | Cc1cc(F)ccc1-c1c(O)c(C)c(-c2ccc(F)cc2)oc1=O | 191 to 193 °C
82 | CC(C)(C)OC(=O)N[C@H]1CCCC[C@@H]1O | 103 to 105 °C
83 | CCN(CCN(C)C)c1ccc(-c2ccnc(Nc3cc(OC)c(OC)c(OC)c3)n2)cn1 | 90 °C
84 | Nc1ccc(S(=O)(=O)Nc2ccc(OP(N)(N)=O)cc2)cc1 | 174 to 175 °C

Row | Compound | melting point
85 | CC(C)Oc1cc(Oc2ccc(C(F)(F)F)cn2)ccc1CCCOc1cc(CCC(=O)O)n(-c2ccccc2)n1 | 130 °C
86 | CCn1c(N)c(C(=O)NC)c(=O)c2ccc(-c3ccc(CC(=O)O)cc3)nc21 | 260 °C
87 | CCCNCCc1ccc(NS(=O)(=O)c2ccc(Cl)cc2)cc1 | 137 to 140 °C
88 | CCCc1nc(N2CCOCC2)c2cscc2n1 | 102 to 105 °C
89 | CCOC(=O)C(N)=Cc1ccc(OCC(O)CNC(C)(C)C)cc1 (configuration not stated) | 99 to 100 °C
90 | [N-]=[N+]=NCCOc1ccc(/C(=C(\c2ccccc2)C(F)(F)F)c2ccccc2)cc1 | 110 to 118 °C
91 | Oc1ccc(-c2cnc(NC(=S)Cc3ccccc3)c(Cc3ccccc3)n2)cc1 | 195 to 198 °C
92 | CSc1ncc(Br)cn1 | 63 to 65 °C
93 | CO/N=C(/CNC(=O)c1cnc(OCC(F)(F)F)c(-c2ccc(Cl)c(Cl)c2)c1)C(F)(F)F | 124 to 126 °C
94 | COc1cc(-c2nnc3n2CCC[C@]3(Oc2cc(F)c(F)c(F)c2)C(C)(C)O)ccc1-c1cnc(C)o1 | 188 °C
95 | CC[C@H](COC)n1cc(Cl)nc(N2CCc3cc(Cl)cc(Cl)c32)c1=O | 143 to 146 °C
96 | CCOC(=O)CSc1nc(Cl)cc(Nc2c(C)cc(C)cc2C)n1 | 100 to 103 °C
97 | O=C(Nc1cccc(F)c1F)c1ccc(-n2nc(C(F)(F)F)cc2C2CC2)c(F)c1 | 175 to 180 °C
98 | Nc1ccc(OCCn2ccnc2)cc1 | 91 to 92 °C
99 | O=C(O)C(=O)c1ccc(OCCOc2cccc(F)c2)cc1 | 108 to 109 °C
100 | COc1cc2[nH]c3cc(OC)c(OC)cc3c2cc1OC | 232 to 233 °C
101 | C[C@H](C#Cc1ccc(Cc2ccc(Cl)cc2)s1)N(O)C(N)=O | 132 °C
102 | CC1(C)OC(=O)COC1=O | 82 to 83 °C
